We go through eight molecules from PubChem BioAssay (NCI).

Values joined by “and” are separate entries in the source; they are usually repeats but may differ in a detail not shown here. Equal entries are not always repeated.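 Cultured in 96-well plates, cells were exposed to test compound for 48 hours across five concentrations. At the GI50, growth is halved. Definition used: TGI = concentration required for complete inhibition of growth.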

Some test systems named below: M14 melanoma; NCI-H226 lung; SF-539 CNS; SK-MEL-28 melanoma; MDA-MB-231 breast; HCT-15 colon; SR leukemia; MOLT-4 leukemia; 786-0 renal; CCRF-CEM leukemia.
Assay in all cases: inhibition of tumour cell growth, NCI panel, 48 h

In the case of `C[C@@H]1C[C@@H]([C@H](O)CC2CC(=O)NC(=O)C2)C(=O)[C@@H](C)C1`, the GI50 in the test on M14 melanoma was 0.248 µM; in the test with NCI-H226 lung, 0.326 µM; with SF-539 CNS it was 0.214 µM; with SK-MEL-28 melanoma, 0.249 µM; in the test with MDA-MB-231 breast, 0.608 µM; in the test on HCT-15 colon it was 0.284 µM. The GI50 with SR leukemia is 0.28 µM; in the test with MOLT-4 leukemia, 0.139 µM; with 786-0 renal, 0.186 µM; with CCRF-CEM leukemia, 0.0958 µM. The TGI in the test on M14 melanoma is 2.8 µM and 1.6 µM; with NCI-H226 lung, 7.26 µM and 4.86 µM; in the test with SF-539 CNS it was 2.7 µM and 0.838 µM; in the test with SK-MEL-28 melanoma it was 2.01 µM and 1.34 µM; in the test with MDA-MB-231 breast, 7.16 µM; in the test on HCT-15 colon, 15.9 µM and 9.96 µM. In addition, the TGI is 2.06 µM and 0.518 µM in the test with MOLT-4 leukemia; 3.31 µM and 3.56 µM with 786-0 renal; 1.15 µM and 0.406 µM with CCRF-CEM leukemia.
Take `COC1=CC(c2ccc[nH]2)=N/C1=C\c1[nH]c(C)c(C(=O)CCCCCCCCC(=O)O[C@H]2CC[C@H]3C4CCc5cc(O)ccc5C4CC[C@]23C)c1C` (some centres undefined): the GI50 in the test on M14 melanoma was 0.235 µM; in the test on NCI-H226 lung it was 2.99 µM; with SF-539 CNS it was 0.46 µM; in the test on SK-MEL-28 melanoma it was 0.841 µM; in the test with MDA-MB-231 breast, 0.148 µM; in the test with HCT-15 colon, 1.55 µM. The GI50 with SR leukemia is 0.209 µM; in the test with MOLT-4 leukemia, 0.428 µM; in the test on 786-0 renal, 0.787 µM; in the test with CCRF-CEM leukemia, 0.117 µM. Besides, the TGI in the test on M14 melanoma was 2.23 µM; with NCI-H226 lung, over 11.4 µM; with SF-539 CNS it was over 50 µM; with SK-MEL-28 melanoma, over 50 µM; in the test on MDA-MB-231 breast it was 7.06 µM; with HCT-15 colon it was over 50 µM. Further, the TGI with SR leukemia is over 20.2 µM; in the test with MOLT-4 leukemia, over 50 µM; in the test with 786-0 renal, over 12.8 µM; with CCRF-CEM leukemia, over 50 µM.
With `COc1ccc2[nH]c(C(=O)N3CCN(C(=O)OCc4ccc5c(Cl)cc(Cl)c(O)c5n4)CC3)cc2c1`, the GI50 is 1.15 µM in the test with M14 melanoma; 1.18 µM in the test with NCI-H226 lung; 1.31 µM in the test with SF-539 CNS; 1.58 µM in the test with SK-MEL-28 melanoma; 1.34 µM with MDA-MB-231 breast; 0.368 µM in the test on HCT-15 colon. The GI50 with SR leukemia was 0.232 µM; in the test on MOLT-4 leukemia, 0.356 µM; in the test on 786-0 renal, 1.37 µM; in the test with CCRF-CEM leukemia, 0.275 µM. In addition, the TGI with M14 melanoma turned out to be 2.6 µM; in the test on NCI-H226 lung, 2.56 µM; in the test with SF-539 CNS, 2.58 µM; in the test with SK-MEL-28 melanoma it was 2.94 µM; in the test with MDA-MB-231 breast it was 2.87 µM; in the test on HCT-15 colon, 1.59 µM. The TGI with SR leukemia came to 1.05 µM; in the test with MOLT-4 leukemia it was 1.79 µM; in the test with 786-0 renal, 2.82 µM; in the test with CCRF-CEM leukemia, 1.67 µM.
`CC1(C)CC(C)(C)c2cc(NC(=S)Nc3ccc([N+](=O)[O-])cc3)ccc2S1`: the GI50 in the test on M14 melanoma is 17.9 µM; in the test with NCI-H226 lung, 14.3 µM; in the test with SF-539 CNS, 10.8 µM; in the test on SK-MEL-28 melanoma it was 17.2 µM; with MDA-MB-231 breast it was 10.8 µM; with HCT-15 colon it was 12.6 µM. The GI50 with SR leukemia was 12.9 µM; with MOLT-4 leukemia, 19.1 µM; in the test with 786-0 renal, 17 µM; in the test on CCRF-CEM leukemia, 12.3 µM. Moreover, the TGI with M14 melanoma is over 53.9 µM; in the test on NCI-H226 lung, 38.5 µM; in the test on SF-539 CNS, 22.7 µM; with SK-MEL-28 melanoma, 68.5 µM; in the test on MDA-MB-231 breast it was 22.6 µM; with HCT-15 colon it was 45.8 µM. Also, the TGI is over 88.2 µM with SR leukemia, over 100 µM in the test with MOLT-4 leukemia, over 55.5 µM in the test on 786-0 renal and 41.1 µM with CCRF-CEM leukemia.
As to `COC1=CC(=O)O/C1=C(\OC)C1OC1c1ccccc1` (centres undefined), the TGI with M14 melanoma, in the test with NCI-H226 lung, in the test on SF-539 CNS, in the test with SK-MEL-28 melanoma, with MDA-MB-231 breast and in the test with HCT-15 colon was over 100 µM each time. In addition, the TGI in the test on SR leukemia is 93.8 µM; with MOLT-4 leukemia it was over 100 µM; in the test on 786-0 renal, over 100 µM; in the test on CCRF-CEM leukemia, over 100 µM.
Regarding `O=C(Nc1n[nH]c2cc(-c3cc(F)ccc3F)ccc12)C1CC1`, the GI50 is 13.8 µM in the test on M14 melanoma; 18.4 µM with NCI-H226 lung; 13.5 µM in the test on SF-539 CNS; over 14.5 µM in the test on SK-MEL-28 melanoma; 19.5 µM in the test on MDA-MB-231 breast; 8.39 µM in the test on HCT-15 colon. The GI50 with SR leukemia is 6.38 µM; in the test on MOLT-4 leukemia it was 14.3 µM; in the test with 786-0 renal, over 25 µM; in the test with CCRF-CEM leukemia, 10.5 µM. Moreover, the TGI in the test on M14 melanoma, with NCI-H226 lung, with SF-539 CNS, in the test on SK-MEL-28 melanoma, with MDA-MB-231 breast and with HCT-15 colon was over 25 µM each time. Besides, the TGI with SR leukemia, in the test with MOLT-4 leukemia, in the test on 786-0 renal and in the test on CCRF-CEM leukemia was over 25 µM in each case.
`CCCC(=O)O[C@]1(C)CC[C@@H]2[C@H]3[C@@H]1[C@@H]1C[C@@](C)(O)[C@H](OC)CC[C@](C)(OC(=O)[C@@H]2C)[C@H]3O1`: the GI50 is 28.9 µM with M14 melanoma; 55 µM in the test with NCI-H226 lung; 71.7 µM in the test on SF-539 CNS; 19.9 µM with SK-MEL-28 melanoma; 28.9 µM in the test with MDA-MB-231 breast; 47 µM in the test on HCT-15 colon. Also, the GI50 with SR leukemia was 14.9 µM; in the test with MOLT-4 leukemia it was 23.5 µM; in the test with 786-0 renal, over 100 µM; in the test on CCRF-CEM leukemia, 2.35 µM. Moreover, the TGI was over 100 µM in the test with M14 melanoma; over 100 µM in the test with NCI-H226 lung; over 100 µM in the test on SF-539 CNS; 35 µM with SK-MEL-28 melanoma; 77.6 µM in the test with MDA-MB-231 breast; over 100 µM in the test on HCT-15 colon. For the same molecule, the TGI with SR leukemia is 28.1 µM; in the test on MOLT-4 leukemia it was 52 µM; in the test with 786-0 renal, over 100 µM; in the test with CCRF-CEM leukemia it was 13.9 µM.
`COc1ccc(-c2ccc(OC)c(OC)c2OC)cc1`: the GI50 is 0.817 µM in the test on M14 melanoma; 17.3 µM with NCI-H226 lung; 1.24 µM in the test on SF-539 CNS; 14.9 µM in the test with SK-MEL-28 melanoma; 3.21 µM in the test on MDA-MB-231 breast; 0.766 µM in the test with HCT-15 colon. Further, the GI50 in the test with SR leukemia was 0.572 µM; with MOLT-4 leukemia it was 2.39 µM; in the test with 786-0 renal, 8.23 µM; with CCRF-CEM leukemia, 2.19 µM. The TGI with M14 melanoma was over 77.8 µM; in the test with NCI-H226 lung, over 100 µM; in the test on SF-539 CNS, 5.31 µM; in the test on SK-MEL-28 melanoma, over 100 µM; with MDA-MB-231 breast it was over 74.5 µM; with HCT-15 colon, over 100 µM. Moreover, the TGI with SR leukemia is over 100 µM; in the test with MOLT-4 leukemia, over 100 µM; in the test on 786-0 renal it was 82.2 µM; in the test with CCRF-CEM leukemia it was over 100 µM.
